Series [1] in a line: Drug concentration at steady state in human at 100 mg, po QD after 24 hrs. The series is classed as ADME, organism-based. Conditions: in vivo, read-out: Css.
The target in series [2] is ATP-binding cassette sub-family C member 3 (Homo sapiens, UniProt O15438). The series is described as follows: Inhibition of human MRP3 overexpressed in Sf9 insect cell membrane vesicles assessed as uptake of [3H]-estradiol-17beta-D-glucuronide in presence of ATP and GSH measured after 10 mins by membrane vesicle transport assay. Format: ADME, cell-based.
Sequence of ATP-binding cassette sub-family C member 3 (O15438 whole entry): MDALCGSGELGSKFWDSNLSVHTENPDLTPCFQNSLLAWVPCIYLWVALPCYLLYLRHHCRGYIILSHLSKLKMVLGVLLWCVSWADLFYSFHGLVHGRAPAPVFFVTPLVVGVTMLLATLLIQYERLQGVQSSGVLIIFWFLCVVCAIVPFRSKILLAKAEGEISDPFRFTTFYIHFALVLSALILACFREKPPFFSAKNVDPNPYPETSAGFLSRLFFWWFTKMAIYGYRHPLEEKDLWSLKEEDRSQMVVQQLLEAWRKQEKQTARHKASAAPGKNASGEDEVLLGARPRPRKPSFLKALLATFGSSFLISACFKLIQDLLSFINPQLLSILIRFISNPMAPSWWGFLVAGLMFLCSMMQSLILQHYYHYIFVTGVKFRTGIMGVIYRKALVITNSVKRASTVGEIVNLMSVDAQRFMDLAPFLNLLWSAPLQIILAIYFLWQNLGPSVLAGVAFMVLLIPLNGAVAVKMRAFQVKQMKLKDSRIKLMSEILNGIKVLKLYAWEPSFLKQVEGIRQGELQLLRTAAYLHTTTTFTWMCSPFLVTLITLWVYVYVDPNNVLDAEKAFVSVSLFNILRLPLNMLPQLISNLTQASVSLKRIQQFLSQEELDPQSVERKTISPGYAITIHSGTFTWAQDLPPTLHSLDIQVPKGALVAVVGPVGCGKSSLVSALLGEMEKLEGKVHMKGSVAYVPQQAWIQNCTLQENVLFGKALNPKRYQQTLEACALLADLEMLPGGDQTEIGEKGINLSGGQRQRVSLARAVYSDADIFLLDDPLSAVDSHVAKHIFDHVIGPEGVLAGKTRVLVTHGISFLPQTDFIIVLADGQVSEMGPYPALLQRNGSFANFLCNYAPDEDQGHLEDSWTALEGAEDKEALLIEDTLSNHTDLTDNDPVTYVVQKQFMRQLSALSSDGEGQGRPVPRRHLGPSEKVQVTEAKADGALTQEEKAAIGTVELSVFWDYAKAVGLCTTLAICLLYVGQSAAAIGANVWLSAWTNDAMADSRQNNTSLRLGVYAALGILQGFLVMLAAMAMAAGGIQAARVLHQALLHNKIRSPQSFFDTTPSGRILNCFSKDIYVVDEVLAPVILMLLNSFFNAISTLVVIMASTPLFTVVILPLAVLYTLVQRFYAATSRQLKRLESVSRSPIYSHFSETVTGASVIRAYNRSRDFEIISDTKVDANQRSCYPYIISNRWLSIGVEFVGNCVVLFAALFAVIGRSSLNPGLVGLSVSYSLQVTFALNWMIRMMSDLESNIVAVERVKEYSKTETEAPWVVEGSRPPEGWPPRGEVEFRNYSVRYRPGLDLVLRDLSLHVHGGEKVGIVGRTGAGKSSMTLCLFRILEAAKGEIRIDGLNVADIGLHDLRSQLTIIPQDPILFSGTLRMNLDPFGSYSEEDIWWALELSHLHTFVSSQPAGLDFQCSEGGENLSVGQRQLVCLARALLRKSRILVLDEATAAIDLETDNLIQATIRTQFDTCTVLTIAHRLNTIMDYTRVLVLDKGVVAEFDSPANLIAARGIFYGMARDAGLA
Series [3] can be described thus: AUC in human at 100 mg, po QD after 24 hrs. Conditions: in vivo. Details: time < 24 hr, dose 100 mg, route oral. Format: ADME, organism-based.
Another series deals with Bile salt export pump (Homo sapiens, UniProt O95342). Briefly: Inhibition of human BSEP overexpressed in Sf9 cell membrane vesicles assessed as uptake of [3H]-taurocholate in presence of ATP measured after 15 to 20 mins by membrane vesicle transport assay. Format: ADME, cell-based.
Sequence of Bile salt export pump (O95342 whole entry): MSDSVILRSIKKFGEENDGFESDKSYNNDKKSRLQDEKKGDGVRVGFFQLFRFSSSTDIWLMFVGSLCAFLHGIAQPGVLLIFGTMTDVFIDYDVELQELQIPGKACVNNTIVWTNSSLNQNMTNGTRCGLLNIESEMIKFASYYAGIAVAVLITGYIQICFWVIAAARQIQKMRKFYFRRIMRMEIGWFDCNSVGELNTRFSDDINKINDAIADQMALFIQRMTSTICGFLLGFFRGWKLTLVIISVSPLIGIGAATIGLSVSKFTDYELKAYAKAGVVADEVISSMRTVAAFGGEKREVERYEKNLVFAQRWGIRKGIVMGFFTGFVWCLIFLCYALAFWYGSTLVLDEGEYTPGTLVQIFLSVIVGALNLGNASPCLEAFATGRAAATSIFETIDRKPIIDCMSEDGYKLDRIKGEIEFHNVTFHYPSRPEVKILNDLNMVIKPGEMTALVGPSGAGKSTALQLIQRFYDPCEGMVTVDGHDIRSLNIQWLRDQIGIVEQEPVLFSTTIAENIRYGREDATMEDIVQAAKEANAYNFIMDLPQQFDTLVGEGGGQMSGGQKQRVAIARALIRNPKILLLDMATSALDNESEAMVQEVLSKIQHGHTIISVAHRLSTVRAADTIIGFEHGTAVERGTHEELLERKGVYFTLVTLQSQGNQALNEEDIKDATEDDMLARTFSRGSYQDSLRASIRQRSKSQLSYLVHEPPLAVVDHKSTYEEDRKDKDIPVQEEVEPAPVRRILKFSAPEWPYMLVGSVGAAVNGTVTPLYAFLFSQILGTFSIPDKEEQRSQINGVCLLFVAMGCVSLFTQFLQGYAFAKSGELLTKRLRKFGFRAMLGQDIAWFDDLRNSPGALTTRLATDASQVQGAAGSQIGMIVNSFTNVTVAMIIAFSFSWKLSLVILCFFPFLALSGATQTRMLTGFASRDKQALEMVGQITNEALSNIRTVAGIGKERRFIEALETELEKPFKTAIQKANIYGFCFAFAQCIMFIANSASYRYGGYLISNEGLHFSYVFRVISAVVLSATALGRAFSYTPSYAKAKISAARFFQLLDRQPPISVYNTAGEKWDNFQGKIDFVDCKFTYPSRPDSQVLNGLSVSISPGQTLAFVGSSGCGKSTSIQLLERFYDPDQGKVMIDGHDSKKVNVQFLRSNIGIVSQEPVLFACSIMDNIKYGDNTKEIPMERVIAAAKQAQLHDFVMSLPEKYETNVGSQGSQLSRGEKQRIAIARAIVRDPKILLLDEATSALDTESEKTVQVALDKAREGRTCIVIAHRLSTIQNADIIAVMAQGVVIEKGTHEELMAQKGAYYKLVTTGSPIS
Series [4] deals with ATP-binding cassette sub-family C member 2 (Homo sapiens, UniProt Q92887). Briefly: Inhibition of human MRP2 overexpressed in Sf9 cell membrane vesicles assessed as uptake of [3H]-estradiol-17beta-D-glucuronide in presence of ATP and GSH measured after 20 mins by membrane vesicle transport assay.
Sequence of ATP-binding cassette sub-family C member 2 (Q92887 whole entry): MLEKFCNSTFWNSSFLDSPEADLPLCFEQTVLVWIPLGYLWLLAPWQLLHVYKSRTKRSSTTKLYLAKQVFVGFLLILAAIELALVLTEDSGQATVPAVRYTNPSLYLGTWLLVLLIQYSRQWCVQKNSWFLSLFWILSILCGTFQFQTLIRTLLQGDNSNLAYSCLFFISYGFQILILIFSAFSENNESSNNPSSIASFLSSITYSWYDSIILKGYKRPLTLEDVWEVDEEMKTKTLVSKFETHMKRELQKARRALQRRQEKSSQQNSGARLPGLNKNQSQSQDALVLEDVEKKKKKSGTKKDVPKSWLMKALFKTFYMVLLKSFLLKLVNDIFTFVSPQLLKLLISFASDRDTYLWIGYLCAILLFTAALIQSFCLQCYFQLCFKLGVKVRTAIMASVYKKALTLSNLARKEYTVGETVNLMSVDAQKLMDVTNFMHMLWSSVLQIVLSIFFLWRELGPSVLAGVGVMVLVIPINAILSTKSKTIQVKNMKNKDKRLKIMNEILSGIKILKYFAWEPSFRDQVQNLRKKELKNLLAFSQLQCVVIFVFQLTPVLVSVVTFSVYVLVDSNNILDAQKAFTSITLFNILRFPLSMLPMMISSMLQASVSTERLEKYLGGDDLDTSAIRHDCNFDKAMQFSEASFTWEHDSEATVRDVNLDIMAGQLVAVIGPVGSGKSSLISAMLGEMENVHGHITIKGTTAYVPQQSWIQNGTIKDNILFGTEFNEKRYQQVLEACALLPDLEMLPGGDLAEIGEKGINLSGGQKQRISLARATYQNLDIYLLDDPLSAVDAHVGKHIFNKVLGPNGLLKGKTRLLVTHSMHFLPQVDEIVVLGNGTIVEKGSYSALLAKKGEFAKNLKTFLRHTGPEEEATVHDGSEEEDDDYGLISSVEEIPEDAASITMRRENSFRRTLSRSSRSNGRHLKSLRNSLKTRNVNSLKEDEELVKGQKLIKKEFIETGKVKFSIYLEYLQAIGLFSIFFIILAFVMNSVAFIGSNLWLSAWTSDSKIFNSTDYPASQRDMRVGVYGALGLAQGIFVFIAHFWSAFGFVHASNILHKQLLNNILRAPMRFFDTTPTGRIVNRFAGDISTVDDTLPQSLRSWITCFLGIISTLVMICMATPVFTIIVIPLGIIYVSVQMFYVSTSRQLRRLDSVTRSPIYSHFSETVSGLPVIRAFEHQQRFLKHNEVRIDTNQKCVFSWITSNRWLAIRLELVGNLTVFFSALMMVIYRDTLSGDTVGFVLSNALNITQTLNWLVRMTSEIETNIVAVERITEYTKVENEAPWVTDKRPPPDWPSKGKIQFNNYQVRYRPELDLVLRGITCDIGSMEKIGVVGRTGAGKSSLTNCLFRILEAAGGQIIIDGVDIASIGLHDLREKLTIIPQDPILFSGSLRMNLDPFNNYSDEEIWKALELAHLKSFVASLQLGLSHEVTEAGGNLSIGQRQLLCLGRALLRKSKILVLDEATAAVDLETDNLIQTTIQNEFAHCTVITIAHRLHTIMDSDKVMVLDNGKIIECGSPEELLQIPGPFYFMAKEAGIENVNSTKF
Series [5] relates to Homo sapiens. Briefly: Ratio of drug concentration at steady state in human at 100 mg, po after 24 hrs to IC50 for human BSEP overexpressed in Sf9 insect cells. The following applies: in vivo. The series is classed as ADME, organism-based.
For series [6], the target named is T1, ATP-binding cassette sub-family C member 4 (Homo sapiens, UniProt O15439).
T1 sequence (O15439 whole entry): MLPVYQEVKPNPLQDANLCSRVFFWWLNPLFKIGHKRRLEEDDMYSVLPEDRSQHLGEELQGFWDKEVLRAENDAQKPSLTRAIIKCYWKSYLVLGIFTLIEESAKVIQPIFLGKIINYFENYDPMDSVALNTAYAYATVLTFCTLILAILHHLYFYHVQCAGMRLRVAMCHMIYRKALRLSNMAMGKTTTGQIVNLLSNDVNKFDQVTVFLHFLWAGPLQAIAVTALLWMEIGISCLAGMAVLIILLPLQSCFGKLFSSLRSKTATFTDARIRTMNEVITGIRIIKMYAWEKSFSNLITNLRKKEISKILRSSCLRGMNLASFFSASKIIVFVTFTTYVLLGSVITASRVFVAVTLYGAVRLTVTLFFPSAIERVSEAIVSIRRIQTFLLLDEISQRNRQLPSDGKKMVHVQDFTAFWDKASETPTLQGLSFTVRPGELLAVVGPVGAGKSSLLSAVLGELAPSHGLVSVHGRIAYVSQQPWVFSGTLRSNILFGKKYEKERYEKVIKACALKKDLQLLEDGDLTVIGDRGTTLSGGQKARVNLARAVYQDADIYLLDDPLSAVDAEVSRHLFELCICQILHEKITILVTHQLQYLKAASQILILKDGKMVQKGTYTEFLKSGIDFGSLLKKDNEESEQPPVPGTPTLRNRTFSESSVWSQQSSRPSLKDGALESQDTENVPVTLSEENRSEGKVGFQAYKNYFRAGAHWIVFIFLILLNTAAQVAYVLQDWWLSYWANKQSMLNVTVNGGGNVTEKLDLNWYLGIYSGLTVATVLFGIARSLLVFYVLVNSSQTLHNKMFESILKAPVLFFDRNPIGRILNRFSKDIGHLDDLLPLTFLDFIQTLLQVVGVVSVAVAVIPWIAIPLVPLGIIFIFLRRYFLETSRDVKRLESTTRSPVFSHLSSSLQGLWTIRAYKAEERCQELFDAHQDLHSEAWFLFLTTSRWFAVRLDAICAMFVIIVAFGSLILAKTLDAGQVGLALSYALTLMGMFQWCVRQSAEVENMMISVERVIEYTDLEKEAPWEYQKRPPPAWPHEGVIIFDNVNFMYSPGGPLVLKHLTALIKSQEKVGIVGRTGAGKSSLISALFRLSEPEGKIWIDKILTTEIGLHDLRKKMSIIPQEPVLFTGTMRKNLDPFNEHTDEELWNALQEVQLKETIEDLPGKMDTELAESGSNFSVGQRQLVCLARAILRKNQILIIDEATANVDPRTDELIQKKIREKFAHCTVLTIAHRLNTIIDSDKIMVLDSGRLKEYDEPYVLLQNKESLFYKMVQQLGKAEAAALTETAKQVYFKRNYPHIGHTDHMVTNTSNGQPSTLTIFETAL
The series is described as follows: Inhibition of human MRP4 overexpressed in Sf9 cell membrane vesicles assessed as uptake of [3H]-estradiol-17beta-D-glucuronide in presence of ATP and GSH measured after 20 mins by membrane vesicle transport assay. Format: ADME, cell-based.

The test system of series [7] is Homo sapiens. Briefly: Ratio of drug concentration at steady state in human at 0.25 to 20 mg, po after 24 hrs to IC50 for human MRP3 overexpressed in Sf9 insect cells. The series is classed as ADME, organism-based. The following applies: in vivo.
The nature of series [8]: AUC in human at 0.25 to 20 mg, po QD after 24 hrs. Conditions: in vivo. Format: ADME, organism-based.
Series [9] relates to Homo sapiens. Briefly: Ratio of drug concentration at steady state in human at 0.25 to 20 mg, po after 24 hrs to IC50 for human MRP2 overexpressed in Sf9 insect cells. Conditions: in vivo. Format: ADME, organism-based.
The test system of series [10] is Homo sapiens. The series is described as follows: Ratio of drug concentration at steady state in human at 0.25 to 20 mg, po after 24 hrs to IC50 for human BSEP overexpressed in Sf9 insect cells. Conditions: in vivo. The series is classed as ADME, organism-based.
The nature of series [11]: Drug concentration at steady state in human at 0.25 to 20 mg, po QD after 24 hrs. Format: ADME, organism-based. The following applies: in vivo, read-out: Css.
Series [12] concerns Homo sapiens. Briefly: Ratio of drug concentration at steady state in human at 0.25 to 20 mg, po after 24 hrs to IC50 for human MRP4 overexpressed in Sf9 insect cells. The following applies: in vivo. The series is classed as ADME, organism-based.
Series [13] in a line: Ratio of drug concentration at steady state in human at 1 to 4 mg, po QD after 24 hrs to IC50 for human MRP4 overexpressed in Sf9 insect cells. Format: ADME, organism-based. Conditions: in vivo.
Series [14] is described as follows: Ratio of drug concentration at steady state in human at 1 to 4 mg, po QD after 24 hrs to IC50 for human BSEP overexpressed in Sf9 insect cells. Format: ADME, organism-based. The following applies: in vivo.
A short description of series [15]: Ratio of drug concentration at steady state in human at 1 to 4 mg, po QD after 24 hrs to IC50 for human MRP3 overexpressed in Sf9 insect cells. The series is classed as ADME, organism-based. The following applies: in vivo.
Series [16] in a line: AUC in human at 1 to 4 mg, po QD after 24 hrs. Format: ADME, organism-based. The following applies: in vivo.
A short description of series [17]: Drug concentration at steady state in human at 1 to 4 mg, po QD after 24 hrs. Conditions: in vivo, read-out: Css. The series is classed as ADME, organism-based.
The nature of series [18]: Drug concentration at steady state in patient with possible depletion of intravascular volume at 25 mg, po QD after 24 hrs. The series is classed as ADME, organism-based. The following applies: human, in vivo, read-out: Css.
For series [19], the system named is Homo sapiens. Briefly: Ratio of drug concentration at steady state in human at 50 to 100 mg, po after 24 hrs to IC50 for human MRP4 overexpressed in Sf9 insect cells. Conditions: in vivo. The series is classed as ADME, organism-based.
Series [20] in a line: Drug concentration at steady state in human at 50 to 100 mg, po QD after 24 hrs. The series is classed as ADME, organism-based. The following applies: in vivo, read-out: Css.
Series [21] is described as follows: AUC in human at 50 to 100 mg, po QD after 24 hrs. The series is classed as ADME, organism-based. The following applies: in vivo.
Series [22] concerns Homo sapiens. Briefly: Ratio of drug concentration at steady state in patient with possible depletion of intravascular volume at 25 mg, po QD after 24 hrs to IC50 for human BSEP overexpressed in Sf9 insect cells. The following applies: in vivo. The series is classed as ADME, organism-based.
Series [23] deals with Homo sapiens. Briefly: Ratio of drug concentration at steady state in patient with possible depletion of intravascular volume at 25 mg, po QD after 24 hrs to IC50 for human MRP4 overexpressed in Sf9 insect cells. Format: ADME, organism-based. Conditions: in vivo.
The subject of series [24] is Homo sapiens. The series is described as follows: Ratio of drug concentration at steady state in human at 50 to 100 mg, po after 24 hrs to IC50 for human BSEP overexpressed in Sf9 insect cells. The series is classed as ADME, organism-based. The following applies: in vivo.
Series [25] can be described thus: AUC in patient with possible depletion of intravascular volume at 25 mg, po QD after 24 hrs. Format: ADME, organism-based. Details: time < 24 hr, dose 25 mg, route oral. Conditions: human, in vivo.

Where only a bound is given, the exact number is not on record here.

Regarding `COCC(=O)O[C@]1(CCN(C)CCCc2nc3ccccc3[nH]2)CCc2cc(F)ccc2[C@@H]1C(C)C.Cl`, the concentration at 24 h in series [1] came to 735 nM. Further, the IC50 in series [2] was above 133 µM; on Bile salt export pump, 43.8 µM; in series [4] it was above 133 µM; in series [6], above 133 µM. This compound also showed an AUC at 24 h in series [3] of 17.6 µM·h. Moreover, the Ratio in the series with Homo sapiens [5] is 0.017.
Take `CO[C@H]1C[C@@H]2CC[C@@H](C)[C@@](O)(O2)C(=O)C(=O)N2CCCC[C@H]2C(=O)O[C@H]([C@H](C)C[C@@H]2CC[C@@H](OCCO)[C@H](OC)C2)CC(=O)[C@H](C)/C=C(\C)[C@@H](O)[C@@H](OC)C(=O)[C@H](C)C[C@H](C)/C=C/C=C/C=C/1C` [EVEROLIMUS]: the Ratio in the series with Homo sapiens [7] is recorded as 0; with Homo sapiens [9] it was 0.002; in the series with Homo sapiens [10] it was 0.012; with Homo sapiens [12], 0. In addition, the IC50 in series [2] amounted to 84 µM; at Bile salt export pump, 2 µM; in [4] it was 11.3 µM; in series [6], 95 µM. Moreover, the AUC at 24 h in series [8] was 0.561 µM·h. Besides, in [11], the concentration at 24 h was 23 nM.
Regarding `CCC1=C(C)CN(C(=O)NCCc2ccc(S(=O)(=O)NC(=O)N[C@H]3CC[C@H](C)CC3)cc2)C1=O` [GLIMEPIRIDE], the figures for the Ratio in series [13], in series [14] and in series [15] were 0.002, 0.009 and 0.022, respectively. The values for the IC50 in [2] and in series [6] were 6.39 µM and 64 µM, respectively. The AUC at 24 h in series [16] was 3.4 µM·h. Besides, in series [17], the concentration at 24 h amounted to 141 nM.
Consider `CCCCc1nc(Cl)c(CO)n1Cc1ccc(-c2ccccc2-c2nnn[n-]2)cc1.[K+]` [LOSARTAN POTASSIUM], for which the concentration at 24 h in series [18] and in series [20] was 101 nM in each case. In addition, the Ratio in the series with Homo sapiens [19] is given as 0.003; in the series on Homo sapiens [22], 0.012; in the series with Homo sapiens [23], 0.003; in the series on Homo sapiens [24], 0.012. Also, the AUC at 24 h in [21] and in series [25] was 2.42 µM·h throughout. For the same compound, the values for the IC50 (in series [2]; on Bile salt export pump; in [6]) were above 133 µM, 8.53 µM and 34.1 µM, respectively.

Broadly, the IC50 is the midpoint of a concentration-inhibition curve. The term AUC denotes the area under the concentration-time curve, a measure of exposure. A high value points to more exposure.

(Values after ChEMBL document CHEMBL4028801, “A multifactorial approach to hepatobiliary transporter assessment enables improved therapeutic compound development” (Toxicol Sci, 2013).)
